Experimental data as given in PubChem BioAssay (NCI).
Several values for one entry are separate records, joined by “and”; a condition that tells them apart may be missing. Identical values can stand only once.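 Following 48 hours of exposure in 96-well plates, responses at five concentrations were used to interpolate endpoints linearly. GI50: concentration for 50% inhibition of growth. TGI: total growth inhibition.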

Tested on: MDA-MB-468 breast
Experiment: NCI tumour cell line growth inhibition, 48 h

SMILES | GI50 | TGI
O=CC(OC(=O)c1ccccc1)C(OC(=O)c1ccccc1)C(COC(c1ccccc1)(c1ccccc1)c1ccccc1)OC(=O)c1ccccc1 (stereo not given) | 11.8 µM | 26.9 µM
C[C@@H]1CC[C@H]2[C@@H](C)C(O)O[C@@H]3O[C@]4(C)CC[C@@H]1[C@]32OO4 (stereo not given in full) | 3.58 µM | 33.2 µM
O=c1cc(-c2ccc(Cl)cc2)[nH]c2ccccc12 | 18.6 µM | > 100 µM
C[C@@H](Nc1nc(N[C@H](C)C(F)(F)F)nc(-c2cccc(Cl)n2)n1)C(F)(F)F | 41.9 µM | > 100 µM
NC(N)=NN=c1c(=O)c2ccccc2c1=O | 16.4 µM | 30.7 µM
Cc1c2cnccc2c(C)c2c1c1cc(O)ccc1n2C(C)C | 2.12 µM | 4.74 µM
CC/C=C\C[C@H]1C/C=C2/C(=O)C=C[C@H]2C/C=C\CCCC(=O)O1 | 1.56 µM | 7.95 µM
CCN(C(=O)N1CCN(c2cc3c(cc2F)c(=O)c(C(=O)O)cn3C2CC2)CC1)c1nc(-c2ccccc2)cs1 | 2.52 µM | 8.82 µM
C=CC(=O)N[C@@H]1CN(c2nc(Nc3cn(C)nc3OC)c3ncn(C)c3n2)C[C@H]1F | 0.0256 µM | 0.265 µM
Nc1nc(N)c2c(n1)NC(c1sc(Cl)nc1Cl)CC(c1ccccc1)=N2 (stereo not given) | 2.12 µM | 8.48 µM
Clc1ccc(-c2cc(-c3ccccc3)nc(N3CCN(CCCNc4ccnc5cc(Cl)ccc45)CC3)n2)cc1 | 0.352 µM | 1.61 µM
O=C(COc1ccc(/C=C2\Oc3ccc4ccccc4c3C2=O)cc1)c1ccc([N+](=O)[O-])cc1 | 1.07 µM | 3.05 µM
CCOC(=O)/C(=C/CC/C(C)=C/CC/C(C)=C/CCc1ccoc1)CC(=O)N1CCCCC1 | 2.11 µM | 7.26 µM
Cc1nnc(C[C@@H]2C=C(c3ccc(Cl)cc3)c3ccccc3-n3c(C)nnc32)o1 | 0.745 µM | 22.8 µM
Cc1cccc2c3c(sc12)C(c1ccc(F)cc1)C(C#N)=C(/N=C/c1ccc(Cl)cc1)O3 (stereo not given) | 0.383 µM | 12.6 µM
Cc1cccc2c(C3=C(c4cn(C)c5ccccc45)C(=O)NC3=O)cn(C)c12 | 13.9 µM | > 25 µM
COc1cc2c(Oc3ccc(NC(=O)C4(C(=O)Nc5ccc(F)cc5)CC4)cc3F)ccnc2cc1OCCCN1CCOCC1 | 0.92 µM and 1.05 µM | 2.29 µM and 3.16 µM
C1=N[C@]23C(=N[C@H](N=C2NCc2ccco2)[C@]24N=CNC2=N[C@H]3N=C4NCc2ccco2)N1 | 26.6 µM | > 100 µM
O=C(NC1CCN(Cc2ccccc2)CC1)c1cc(-c2cccnc2)nc2ccc(Cl)cc12 | 4.48 µM | 57 µM
C[C@@H](O)[C@@H](C)Oc1nc(Nc2ccc(S(=N)(=O)C3CC3)cc2)ncc1C(F)(F)F (stereo not given in full) | 0.023 µM | 0.0615 µM
Cc1cc(F)c(C(=O)Nc2cccc(-c3nncn3C(C)C)n2)cc1-n1cnc(C2CC2)c1 | 7.76 µM | 83.3 µM
COc1ccccc1-n1cnc(N)c1C(=O)c1cc(OC)c(OC)c(OC)c1 | 1.85 µM | 6.57 µM
COc1ccc(-c2nn(-c3cccc(Cl)c3)cc2/C=C2\NC(=S)N(c3ccc(Cl)cc3)C2=O)cc1 | 3.03 µM | 6.89 µM
O=C(NNc1nc2cc(F)cc(F)c2n2cccc12)c1ccncn1 | > 30 µM | > 30 µM
CC(=O)N[C@H](C)[C@@H](O)[C@@H](C)[C@@H]1OC(=O)/C=C/C=C(C)\C=C\[C@]2(C)C[C@@H](NS(C)(=O)=O)C=C[C@@H]2/C=C(C)/C=C/[C@H]1C | 0.00245 µM and 0.00435 µM | 2.12 µM and 7.39 µM
